Data reported in US20180250295A1, “Treatment of Motor and Movement Disorder Side Effects Associated with Parkinson's Disease Treatments” (Psychogenics, Inc., priority 2012, published 2018).

Columns and labels:
[1] = test system: Parkinson's patients with L-DOPA induced dyskinesias; test: Levodopa challenge-dose study of oral eltoprazine, dyskinesia ratings (CDRS, Rush DRS); assay type: in vivo, human; settings: for levodopa-induced dyskinesia (LID) measured by the CDRS scale: compared to placebo
From the text: (§1) This example describes a multicenter, randomized, double-blind, placebo-controlled, dose finding study of oral eltoprazine in Parkinson's patients with L-DOPA induced dyskinesias, in a levodopa challenge-dose setting in Parkinson's Disease. A total of 22 patients participated in the study, out of which 18 patients fulfilled the protocol in terms of eligibility, interventions, and outcome assessment.
This study also assessed the safety and tolerability of eltoprazine in adults with Parkinson's Disease using the following measures: a) population mean values for the change in dyskinesia ratings between the placebo and screening baseline values and any of the eltoprazine dosages used, calculated as the peak-effect on CDRS of any study medication; b) population mean values for the change in dyskinesia ratings between the placebo and screening baseline values and any of the eltoprazine dosages used, calculated as the AuC on Rush DRS of any study medication; c) any changes in the UPDRS-III total score; d) any change in the diary data set, between the baseline and placebo and any of the three study medication tests; e) any deterioration of the HADS scores after study medication compared with placebo; f) any development of depression over the course of the study period, determined by the Montgomery Asberg Depression Rating Scale (MADRS) and clinical judgment; g) comparison between the effects on Rush Dyskinesia Rating Scale (DRS) and Clinical Dyskinesia Rating Scale (CDRS) Area under the Curve (AuC) and peak of dose effects for the three study medication dosages.
During the first visit, patients underwent screening for inclusion/exclusion criteria and safety assessments. Symptoms of parkinsonism, depression, and anxiety were assessed, and screening for significant L-DOPA dyskinesias were conducted using a challenge dose (150%) of L-DOPA. Subjects who were taking a prohibited medication were required to complete a washout period of appropriate length, as determined by the investigator. […]

[2] = test system: 5-HT1; settings: with respect to all receptors other than 5-HT1; cited from earlier work
[3] = test system: dopamine receptors; settings: cited from earlier work
[4] = test system: 5-HT1d receptor; settings: compared with serotonin; cited from earlier work
[5] = molecular target: 5-HT1b receptor (Homo sapiens, UniProt P28222); settings: relative to 5-HT1a; cited from earlier work
[6] = test system: Parkinson's patients with L-DOPA induced dyskinesias; test: Safety and tolerability of eltoprazine in the levodopa challenge-dose study; assay type: in vivo, human; settings: single oral doses of 2.5 mg, 5 mg, 7.5 mg
From the text: as §1, with “assessment. […]” for “assessment.”

[7] = molecular target: T1, 5-HT1a receptor (Homo sapiens, UniProt P08908); settings: relative to 5-HT1b; cited from earlier work
T1 sequence (P08908 1-422): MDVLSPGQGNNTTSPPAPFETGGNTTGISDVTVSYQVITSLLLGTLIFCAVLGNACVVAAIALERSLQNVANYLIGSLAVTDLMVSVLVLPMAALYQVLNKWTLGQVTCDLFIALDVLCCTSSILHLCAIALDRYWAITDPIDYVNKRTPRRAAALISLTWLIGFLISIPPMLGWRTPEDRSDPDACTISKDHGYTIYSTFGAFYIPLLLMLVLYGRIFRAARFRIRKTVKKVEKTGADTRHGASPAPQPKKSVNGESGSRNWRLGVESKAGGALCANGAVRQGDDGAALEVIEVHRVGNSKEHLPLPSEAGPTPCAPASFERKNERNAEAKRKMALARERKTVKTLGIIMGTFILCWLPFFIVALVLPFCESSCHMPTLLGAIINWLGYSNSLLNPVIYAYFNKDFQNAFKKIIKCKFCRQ

[8] = test system: Parkinson's patients with L-DOPA induced dyskinesias; test: Levodopa challenge-dose study, UPDRS-III rating of parkinsonian symptoms (L-DOPA efficacy); assay type: in vivo, human
From the text: as §1, with “assessment. […]” for “assessment.”
During each of five visits, and after a two-hour fast, each patient received a challenge dosage (150%—up to a maximum of 250 mg) of levodopa. […] The patients were periodically recorded for 180 minutes after treatment, and the videos were evaluated in a blinded manner. […]
Filming occurred 30 minutes prior to, and every 30 minutes up to 180 minutes after a challenge test of L-DOPA and study medication. […] Video taped records of each sequence were assessed by separate individual qualified raters at both of the two clinical centers.
Analyses were done on both the intention-to-treat (ITT) and per protocol (PP) population, if applicable. The change between test sessions of the highest observed Unified Parkinson's Disease Rating Scale-III (UPDRS) within each session will be calculated between the randomised placebo test session and each active test session and will be analysed with Wilcoxon Signed Rank test on the ITT population.

5-HT1b receptor, sequence (P28222 whole entry): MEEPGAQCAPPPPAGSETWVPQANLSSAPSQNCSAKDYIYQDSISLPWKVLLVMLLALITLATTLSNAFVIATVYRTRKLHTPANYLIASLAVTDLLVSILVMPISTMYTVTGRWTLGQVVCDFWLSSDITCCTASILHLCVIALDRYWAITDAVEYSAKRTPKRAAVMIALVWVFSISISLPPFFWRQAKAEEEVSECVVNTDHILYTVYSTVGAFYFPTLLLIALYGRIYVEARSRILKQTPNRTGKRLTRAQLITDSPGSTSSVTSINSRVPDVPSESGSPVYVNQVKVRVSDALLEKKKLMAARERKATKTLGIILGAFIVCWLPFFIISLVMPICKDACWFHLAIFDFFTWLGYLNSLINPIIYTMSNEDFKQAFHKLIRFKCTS

Structure (SMILES): c1cc2c(c(N3CCNCC3)c1)OCCO2 [eltoprazine, 1-(2,3-dihydro-1,4-benzodioxanyl-5-yl) piperazine]
- LID as measured by the Rush Scale AUC ([1]; 5 mg single oral dose): reduced LID in PD patients statistically significantly
- levodopa-induced dyskinesia (LID) measured by the CDRS scale ([1]; 5 mg single oral dose, p=0.0007, L-DOPA challenge dose 150%): statistically significantly reduced LID
- levodopa-induced dyskinesia (LID) measured by the CDRS scale ([1]; 7.5 mg single oral dose, p=0.0467, L-DOPA challenge dose 150%): statistically significantly reduced LID
- binding selectivity [2]: selective 5-HT1 ligand
- affinity for dopamine receptors [3]: no relevant affinity for dopamine receptors
- affinity for the 5-HT1d receptor [4]: lower affinity for the 5-HT1d receptor
- agonism and affinity at the 5-HT1b receptor [5]: mixed 5-HT1a/5-HT1b receptor agonist with roughly equipotent affinity
- serious adverse events [6]: no serious adverse events
- tolerability [6]: well tolerated
- agonism and affinity at the 5-HT1a receptor [7]: mixed 5-HT1a/5-HT1b receptor agonist with roughly equipotent affinity
- L-DOPA efficacy as measured by the UPDRS score ([8]; 5 mg and 7.5 mg doses): did not affect L-DOPA efficacy
- change in UPDRS-III of parkinsonian symptoms after eltoprazine administration ([8]; FIG. 2): no significant change
